What was measured:
Carbonic anhydrase 1 = Carbonic anhydrase 1 (Homo sapiens, UniProt P00915); assay: CA Activity Assay; settings: pH 7.4; 25 °C
Method: (§1) CA activity was assayed in inhibition studies by following the change in absorbance at 348 nm of 4-nitrophenylacetate (NPA) to 4-nitrophenylate ion over a period of 3 min at 25°C using a spectrophotometer according to the method described by Verpoorte et al. [Verpoorte et al., J. Biol. Chem., 242:4221-4229] The enzymatic reaction, in a total volume of 1 mL, contained 50 mM Tris-SO4 buffer (pH = 7.4), 3 mM 4-nitrophenylacetate and enzyme solution. A reference measurement was done by using the same cuvette without enzyme solution. The inhibitory effects of some synthesized sulfonamide derivatives on CA enzyme activity purified from human erythrocyte were tested on three samples at each concentration used.

Carbonic anhydrase 2 = Carbonic anhydrase 2 (Homo sapiens, UniProt P00918); assay: CA Activity Assay; settings: pH 7.4; 25 °C
Method: as §1

Chain of Carbonic anhydrase 1 (P00915 whole entry): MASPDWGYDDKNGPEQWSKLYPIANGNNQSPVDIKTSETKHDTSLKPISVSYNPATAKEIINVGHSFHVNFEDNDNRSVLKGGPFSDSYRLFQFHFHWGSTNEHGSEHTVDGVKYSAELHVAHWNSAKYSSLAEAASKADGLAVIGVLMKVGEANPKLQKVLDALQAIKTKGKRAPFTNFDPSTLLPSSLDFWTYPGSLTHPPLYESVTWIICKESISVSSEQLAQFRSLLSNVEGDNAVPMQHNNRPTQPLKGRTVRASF

| Ki (Carbonic anhydrase 1) [nM] | Ki (Carbonic anhydrase 2) [nM] | Structure (SMILES) |
| --- | --- | --- |
| 108 | 55 | Nc1cccc(-n2nc(C(=O)Nc3ccc(S(N)(=O)=O)cc3)c(C(=O)c3ccccc3)c2-c2ccccc2)c1 [1-(3-aminophenyl)-4-benzoyl-5-phenyl-N-(4-sulfamoylphenyl)-1H-pyrazole-3-carboxamide (3)] |
| 129 | 64 | [N-]=[N+]=Nc1cccc(-n2nc(C(=O)Nc3ccc(S(N)(=O)=O)cc3)c(C(=O)c3ccccc3)c2-c2ccccc2)c1 [1-(3-azidophenyl)-4-benzoyl-5-phenyl-N-(4-sulfamoylphenyl)-1H-pyrazole-3-carboxamide (9)] |
| 4100 | 1940 | NS(=O)(=O)c1ccc(NC(=O)c2nn(-c3cccc(NN=C(C(=O)c4ccccc4)C(=O)c4ccccc4)c3)c(-c3ccccc3)c2C(=O)c2ccccc2)cc1 [4-benzoyl-1-(3-(2-(1,3-dioxo-1,3-diphenylpropan-2-ylidene)hydrazinyl)phenyl)-5-phenyl-N-(4-sulfamoylphenyl)-1H-pyrazole-3-carboxamide (6)] |
| 160 | 595 | CC(=O)C(=NNc1cccc(-n2nc(C(=O)Nc3ccc(S(N)(=O)=O)cc3)c(C(=O)c3ccccc3)c2-c2ccccc2)c1)C(C)=O [4-benzoyl-1-(3-((2-hydroxy-4-oxopent-2-en-3-yl)diazenyl)phenyl)-5-phenyl-N-(4-sulfamoylphenyl)-1H-pyrazole-3-carboxamide (5)] |
| 521 | 166 | CC(=O)/C(=N\Nc1cccc(-n2nc(C(=O)Nc3ccc(S(N)(=O)=O)cc3)c(C(=O)c3ccccc3)c2-c2ccccc2)c1)C(=O)c1ccccc1 [4-benzoyl-1-(3-((3-hydroxy-1-oxo-1-phenylbut-2-en-2-yl)diazenyl)phenyl)-5-phenyl-N-(4-sulfamoylphenyl)-1Hpyrazole-3-carboxamide (7)] |
| 215 | 337 | NS(=O)(=O)c1ccc(NC(=O)c2nn(-c3cccc([N+](=O)[O-])c3)c(-c3ccccc3)c2C(=O)c2ccccc2)cc1 [4-benzoyl-1-(3-nitrophenyl)-5-phenyl-N-(4-sulfamoylphenyl)-1H-pyrazole-3-carboxamide (2)] |
| 2900 | 8240 | CCOC(=O)/C(=N/Nc1cccc(-n2nc(C(=O)Nc3ccc(S(N)(=O)=O)cc3)c(C(=O)c3ccccc3)c2-c2ccccc2)c1)C(=O)c1ccccc1 [Ethyl-2-(2-(3-(4-benzoyl-5-phenyl-3-(4-sulfamoylphenylcarbamoyl)-1H-pyrazol-1-(phenyl)hydrazono)-3-oxo-3-phenylpropanoate (8)] |

Source: BindingDB's records for doi:10.3109/14756366.2011.651465 (Dumlupinar University, 2013)
